Data published in publication PMC4344207 (PLoS ONE, 2015).
Where two headings read alike, the source gives them in different places.

Tests used:
[1] = system: exendin-4 degradation in rat kidney homogenate; assay: Inhibition of exendin-4 metabolism by protease inhibitors in rat kidney homogenate; format: biochemical
[2] = system: exendin-4 degradation in rat liver homogenate; assay: Inhibition of exendin-4 metabolism by protease inhibitors in rat liver homogenate; format: biochemical
[3] = humans, biologically active GLP-1; cited from earlier work
Description: (§1) In 2003, the International Diabetes Federation (IDF) estimated that almost 200 million people around the world had diabetes mellitus (DM). Approximately 90–95% of people with DM have type 2 diabetes mellitus (T2DM), which is characterized by hyperglycemia, insulin resistance, absolute or relative insulin deficiency, hyperglucagonemia, and increased hepatic glucose production. An optimal therapy for controlling the circulating glucose levels has not been established, and many currently available therapies are associated with unfavorable side effects, which limit their use. […] Although naturally resist ...

[4] = system: plasma dipeptidyl peptidase-IV (DPP-IV); settings: circulating GLP-1, rat and human plasma DPP-IV; cited from earlier work
Description: as §1

Molecule: O=C(O)CNC(=O)C(CS)Cc1ccccc1 (racemic) [DL-thiorphan]
- percentage inhibition of exendin-4 degradation, kidney ([1]; rat kidney homogenate, inhibitor pre-incubated 10 min at 37°C, then exendin-4 10 μM for 30 min, NEM 10 mM, phenanthroline 2 mM, PPACK 210 μM, soybean 1 mg/mL, DL-thiorphan 2 mM, captopril 30 μM, DFP 10 mM, PMSF 1 mM, amastatin 100 μM, bestatin 2 mM, LC-ESI-MS, n = 3): 73%
- percentage inhibition of exendin-4 degradation, liver ([2]; rat liver homogenate, inhibitor pre-incubated 10 min at 37°C, then exendin-4 10 μM for 60 min, NEM 10 mM, phenanthroline 2 mM, PPACK 210 μM, soybean 1 mg/mL, DL-thiorphan 2 mM, captopril 30 μM, DFP 10 mM, PMSF 1 mM, amastatin 100 μM, bestatin 2 mM, LC-ESI-MS, n = 3): no effect

Molecule: CC(C)C[C@H](NC(=O)[C@@H](O)[C@H](N)Cc1ccccc1)C(=O)O [bestatin]
- percentage inhibition of exendin-4 degradation, kidney [1]: 11%
- percentage inhibition of exendin-4 degradation, liver [2]: 48%

Molecule: glucagon-like peptide 1 [GLP-1]
- apparent serum half-life [3]: 1 to 2 min
- cleavage by rat and human plasma DPP-IV [4]: rapid proteolytic cleavage

Molecule: CCN1C(=O)C=CC1=O [NEM, N-ethylmaleimide]
- percentage inhibition of exendin-4 degradation, kidney [1]: not inhibited
- percentage inhibition of exendin-4 degradation, liver [2]: not inhibited

Molecule: CC(C)C[C@@H](N)[C@H](O)C(=O)N[C@H](C(=O)N[C@H](C(=O)N[C@@H](CC(=O)O)C(=O)O)C(C)C)C(C)C [amastatin]
- percentage inhibition of exendin-4 degradation, kidney [1]: 32%
- percentage inhibition of exendin-4 degradation, liver [2]: 13.2%

Molecule: O=S(=O)(F)Cc1ccccc1 [PMSF, phenylmethylsulfonyl fluoride]
- percentage inhibition of exendin-4 degradation, kidney [1]: 18%
- percentage inhibition of exendin-4 degradation, liver [2]: 65%

Molecule: NC(N)=NCCC[C@H](NC(=O)[C@@H]1CCCN1C(=O)[C@H](N)Cc1ccccc1)C(=O)CCl [PPACK]
- percentage inhibition of exendin-4 degradation, kidney [1]: 41%
- percentage inhibition of exendin-4 degradation, liver [2]: no effect

Molecule: C[C@H](CS)C(=O)N1CCC[C@H]1C(=O)O [captopril]
- percentage inhibition of exendin-4 degradation, kidney [1]: not inhibited
- percentage inhibition of exendin-4 degradation, liver [2]: not inhibited

Molecule: c1cnc2c(c1)ccc1cccnc12 [1,10-phenanthroline]
- percentage inhibition of exendin-4 degradation, kidney [1]: > 77%
- percentage inhibition of exendin-4 degradation, liver [2]: > 77%

B1: trypsin inhibitor (soybean): soybean trypsin inhibitor (protein, UniProt P01070 25-205, looked up)
Trypsin inhibitor A: DFVLDNEGNPLENGGTYYILSDITAFGGIRAAPTGNERCPLTVVQSRNELDKGIGTIISSPYRIRFIAEGHPLSLKFDSFAVIMLCVGIPTEWSVVEDLPEGPAVKIGENKDAMDGWFRLERVSDDEFNNYKLVFCPQQAEDDKCGDIGISIDHDDGTRRLVVSKNKPLVVQFQKLDKESL
- percentage inhibition of exendin-4 degradation, kidney [1]: no effect
- percentage inhibition of exendin-4 degradation, liver [2]: 20%
